The values below come from US20260098053A1, “COMPOSITIONS AND METHODS FOR TREATING CNS DISORDERS” (SAGE THERAPEUTICS, INC., priority 2019, published 2026).

As a reminder, the IC50 is the point on the concentration scale where inhibition reaches its midpoint.

One experiment concerns the target [35S]-TBPS binding, rat brain cortical membranes. Briefly: Steroid inhibition of [35S]-TBPS binding. The settings on record: Table 4, 3 nM [35S]-TBPS, in the presence of 5 mM GABA, read-out: TBPS IC50. How it is done:
[35S]-t-Butylbicyclophosphorothionate (TBPS) binding assays using rat brain cortical membranes in the presence of 5 mM GABA has been described (Gee et al, J. Pharmacol. Exp. Ther. 1987, 241, 346-353; Hawkinson et al, Mol. Pharmacol. 1994, 46, 977-985; Lewin, A. H et al., Mol. Pharmacol. 1989, 35, 189-194).
Briefly, cortices are rapidly removed following decapitation of carbon dioxide-anesthetized Sprague-Dawley rats (200-250 g). The cortices are homogenized in 10 volumes of ice-cold 0.32 M sucrose using a glass/teflon homogenizer and centrifuged at 1500×g for 10 min at 4° C. The resultant supernatants are centrifuged at 10,000×g for 20 min at 4° C. to obtain the P2 pellets. The P2 pellets are resuspended in 200 mM NaCl/50 mM Na—K phosphate pH 7.4 buffer and centrifuged at 10,000×g for 10 min at 4° C. This washing procedure is repeated twice and the pellets are resuspended in 10 volumes of buffer. Aliquots ([…]) of the membrane suspensions are incubated with 3 nM [^35S]-TBPS and […] aliquots of test drug dissolved in dimethyl sulfoxide (DMSO) (final 0.5%) in the presence of 5 mM GABA. The incubation is brought to a final volume of 1.0 mL with buffer. Nonspecific binding is determined in the presence of […] and ranged from 15 to 25%. Following a 90 min incubation at room temp, the assays are terminated by filtration through glass fiber filters (Schleicher and Schuell No. 32) using a cell harvester (Brandel) and rinsed three times with ice-cold buffer. Filter bound radioactivity is measured by liquid scintillation spectrometry. Non-linear curve fitting of the overall data for each drug averaged for each concentration is done using Prism (GraphPad). […] The concentration of test compound producing 50% inhibition (IC50) of specific binding and the maximal extent of inhibition (Imax) are determined for the individual experiments with the same model used for the overall data and then the means±SEM.s of the individual experiments are calculated.
Various compounds are or can be screened to determine their potential as modulators of [^35S]-TBPS binding in vitro. These assays are or can be performed in accordance with the above
Take `C[C@@]1(O)CCC[C@@]2(C)[C@H](CC[C@@H]3[C@@H]2CC[C@]2(C)[C@@H](C(=O)CCn4cc(C#N)cn4)CCC[C@@H]32)C1` [Example 18, 1-(3-((1S,4aS,4bR,6aR,8R,11aS,11bS,13aS)-8-hydroxy-8,11a,13a-trimethyloctadecahydro-1H-cyclohepta[a]phenanthren-1-yl)-3-oxopropyl)-1H-pyrazole-4-carbonitrile]: the IC50 was less than 100 nM.
The same measure, in the same setting: the value for `COC[C@]1(O)CC[C@@H]2CC[C@@H]3[C@H](CC[C@]4(C)[C@@H](C(=O)Cn5cc(C#N)cn5)CCC[C@@H]34)[C@@]2(C)CC1` [Example 56, 1-(2-((1S,4aS,4bR,6aS,9S,11aS,11bS,13aS)-9-hydroxy-9-(methoxymethyl)-11a,13a-dimethyloctadecahydro-1H-cyclohepta[a]phenanthren-1-yl)-2-oxoethyl)-1H-pyrazole-4-carbonitrile] was 100 to 1000 nM.
Same read-out and setting: the value for `C[C@@]1(O)CCC[C@@]2(C)[C@H](CC[C@@H]3[C@@H]2CC[C@]2(C)[C@H](C(=O)Cn4cc(C#N)cn4)CCCC[C@@H]32)C1` [Example 61, 1-(2-((1R,5aS,5bR,7aR,9R,12aS,12bS,14aS)-9-hydroxy-9,12a,14a-trimethylicosahydrodicyclohepta[a,f]naphthalen-1-yl)-2-oxoethyl)-1H-pyrazole-4-carbonitrile] was 100 to 1000 nM.
The same measure, in the same setting: the value for `C[C@@]1(O)CCC[C@H]2[C@H](CC[C@@H]3[C@@H]2CC[C@]2(C)[C@@H](C(=O)Cn4cc(C#N)cn4)CCC[C@@H]32)C1` [Example 10] was less than 100 nM; that for `CC[C@]12CC[C@H]3[C@@H](CC=C4CC[C@](C)(O)CC[C@@]43C)[C@@H]1CC[C@@H]2C(=O)Cn1cc(C#N)cn1` [Example 35, 1-(2-((1S,3aS,3bS,8S,10aR,10bS,12aS)-12a-ethyl-8-hydroxy-8,10a-dimethyl-1,2,3,3a,3b,4,6,7,8,9,10,10a,10b,11,12,12a-hexadecahydrocyclohepta[a]cyclopenta[f]naphthalen-1-yl)-2-oxoethyl)-1H-pyrazole-4-carbonitrile] was less than 100 nM; that for `C[C@@]1(O)CCC[C@@]2(C)[C@H](CC[C@@H]3[C@@H]2CC[C@]2(C)[C@H](C(=O)Cn4cc(C#N)cn4)CCC[C@@H]32)C1` [Example 17, 1-(2-((1R,4aS,4bR,6aR,8R,11aS,11bS,13aS)-8-hydroxy-8,11a,13a-trimethyloctadecahydro-1H-cyclohepta[a]phenanthren-1-yl)-2-oxoethyl)-1H-pyrazole-4-carbonitrile] was more than 1000 nM.
For the compound `Cc1nnnn1CC(=O)[C@H]1CCC[C@H]2[C@@H]3CC[C@@H]4C[C@](C)(O)CCC[C@@H]4[C@H]3CC[C@]12C` [Example 12, 1-((1S,4aS,4bR,6aR,8R,11aS,11bR,13aS)-8-hydroxy-8,13a-dimethyloctadecahydro-1H-cyclohepta[a]phenanthren-1-yl)-2-(5-methyl-1H-tetrazol-1-yl)ethan-1-one], the IC50 was less than 100 nM.
Same read-out and setting: in the case of `CC[C@@]1(O)CCC[C@@]2(C)[C@H](CC[C@@H]3[C@@H]2CC[C@]2(C)[C@@H](C(=O)Cn4cc(C#N)cn4)CCC[C@@H]32)C1` [Example 38, 1-(2-((1S,4aS,4bR,6aR,8R,11aS,11bS,13aS)-8-ethyl-8-hydroxy-11a,13a-dimethyloctadecahydro-1H-cyclohepta[a]phenanthren-1-yl)-2-oxoethyl)-1H-pyrazole-4-carbonitrile] it was 100 to 1000 nM; in that of `CC(=O)[C@H]1CCC[C@H]2[C@@H]3CC[C@@H]4C[C@](C)(O)CCC[C@@H]4[C@H]3CC[C@]12C` [Example 9, 1-((1S,4aS,4bR,6aR,8R,11aS,11bR,13aS)-8-hydroxy-8,13a-dimethyloctadecahydro-1H-cyclohepta[a]phenanthren-1-yl)ethan-1-one], less than 100 nM.
For the compound `Cc1nnnn1CC(=O)[C@@H]1CCCC[C@H]2[C@@H]3CC[C@@H]4C[C@](C)(O)CCC[C@]4(C)[C@H]3CC[C@]12C` [Example 65, 1-((1R,5aS,5bR,7aR,9R,12aS,12bS,14aS)-9-hydroxy-9,12a,14a-trimethylicosahydrodicyclohepta[a,f]naphthalen-1-yl)-2-(5-methyl-1H-tetrazol-1-yl)ethanone], the 50% inhibitory concentration (IC50) was more than 1000 nM.
As to `C[C@@]1(O)CCC[C@@]2(C)[C@@H](CC[C@@H]3[C@@H]2CC[C@]2(C)[C@@H](C(=O)CCn4cc(C#N)cn4)CCC[C@@H]32)C1` [Example 41, 1-(3-((1S,4aS,4bR,6aS,8R,11aS,11bS,13aS)-8-hydroxy-8,11a,13a-trimethyloctadecahydro-1H-cyclohepta[a]phenanthren-1-yl)-3-oxopropyl)-1H-pyrazole-4-carbonitrile], the IC50 is less than 100 nM.
On the same count and under the same terms, the value for `CC(=O)[C@H]1CCC[C@H]2[C@@H]3CC[C@@H]4CC[C@](C)(O)CC[C@]4(C)[C@H]3CC[C@]12C` [Example 53, 1-((1S,4aS,4bR,6aR,9S,11aS,11bS,13aS)-9-hydroxy-9,11a,13a-trimethyloctadecahydro-1H-cyclohepta[a]phenanthren-1-yl)ethanone] was more than 1000 nM; that for `CC[C@@]1(O)CCC[C@@]2(C)[C@H](CC[C@@H]3[C@@H]2CC[C@]2(C)[C@H](C(=O)Cn4cc(C#N)cn4)CCC[C@@H]32)C1` [Example 39, 1-(2-((1R,4aS,4bR,6aR,8R,11aS,11bS,13aS)-8-ethyl-8-hydroxy-11a,13a-dimethyloctadecahydro-1H-cyclohepta[a]phenanthren-1-yl)-2-oxoethyl)-1H-pyrazole-4-carbonitrile] was more than 1000 nM.
Same read-out and setting: in the case of `CC[C@]12CC[C@@](C)(O)C[C@H]1CC[C@H]1[C@@H]3CCCC[C@@H](C(C)=O)[C@@]3(C)CC[C@@H]12` [Example 23, 1-((2R,4aS,4bS,6aS,7R,11aS,11bS,13aR)-4a-ethyl-2-hydroxy-2,6a-dimethyloctadecahydro-1H-cyclohepta[a]phenanthren-7-yl)ethanone] it was 100 to 1000 nM.

The experiment is the same for the next values; noted with them: Table 5, 3 nM [35S]-TBPS, in the presence of 5 mM GABA, read-out: TBPS IC50.
Consider `Cc1nnn(CC(=O)[C@H]2CC[C@H]3[C@@H]4CC[C@@H]5C[C@](C)(O)CC[C@@H]5[C@H]4CC[C@@H]32)n1` [Example 69, 1-((3R,5R,8R,9R,10S,13S,14S,17S)-3-hydroxy-3-methylhexadecahydro-1H-cyclopenta[a]phenanthren-17-yl)-2-(5-methyl-2H-tetrazol-2-yl)ethan-1-one], for which the IC50 was less than 100 nM.
The same measure, in the same setting: in the case of `Cc1nnnn1CC(=O)[C@H]1CCC[C@H]2[C@@H]3CC[C@H]4C[C@](C)(O)CC[C@@H]4[C@H]3CC[C@@H]21` [Example 81, 1-((1S,4aS,4bR,6aS,8R,10aS,10bR,12aS)-8-hydroxy-8-methyloctadecahydrochrysen-1-yl)-2-(5-methyl-1H-tetrazol-1-yl)ethanone] it was less than 100 nM.
`CC(=O)[C@H]1CCC[C@H]2[C@@H]3CC[C@H]4C[C@](C)(O)CC[C@@H]4[C@H]3CC[C@@H]21` [Example 79, 1-((1S,4aS,4bR,6aS,8R,10aS,10bR,12aS)-8-hydroxy-8-methyloctadecahydrochrysen-1-yl)-ethanone]: the IC50 was 100 to 1000 nM.
